Experimental findings from patent publication US9169217B2, “Arylalkyl esters of 4-amino-6-(substituted phenyl)-picolinates and 6-amino-2-(substituted phenyl)-pyrimidinecarboxylates and their use as selective herbicides for crops” (Dow AgroSciences LLC, priority 2011, dated 2015) are described below.

Like-named read-outs stand apart in the source and are kept apart here.

For assay [1], the system named is Ipomoea hederacea (Morningglory, ivyleaf). Kind of assay: General postemergence herbicidal activity (Example 13). Format: in vivo. Conditions: post-emergent spray, 14 DAA. How it is done:
Seeds or nutlets of the desired test plant species were planted in Sun Gro Metro-Mix® 360 planting mixture, which typically has a pH of 6.0 to 6.8 and an organic matter content of about 30 percent, in plastic pots with a surface area of 84.6 square centimeters (cm^2). When required to ensure good germination and healthy plants, a fungicide treatment and/or other chemical or physical treatment was applied. The plants were grown for 7-31 days (d) in a greenhouse with an approximate 15 hour (h) photoperiod which was maintained at about 23-29° C. during the day and 22-28° C. during the night. Nutrients and water were added on a regular basis and supplemental lighting was provided with overhead metal halide 1000-Watt lamps as necessary. The plants were employed for testing when they reached the first or second true leaf stage.
Treatments consisted of esters of compounds 33 and 39 and F and G. Compound F is methyl 6-amino-2-(4-chloro-2-fluoro-3-methoxyphenyl)-5-methoxypyrimidine-4-carboxylate; and compound G is methyl 4-amino-3-chloro-6-(4-chloro-2-fluoro-3-methoxyphenyl)picolinate. A weighed amount, determined by the highest rate to be tested, of each test compound was placed in a 25 mL glass vial and was dissolved in 4 mL of a 97:3 v/v (volume/volume) mixture of acetone and dimethyl sulfoxide (DMSO) to obtain concentrated stock solutions. […] The concentrated stock solutions obtained were diluted with 20 mL of an aqueous mixture containing acetone, water, isopropyl alcohol, DMSO, Atplus 411F crop oil concentrate, and Triton® X-155 surfactant in a 48.5:39:10:1.5:1.0:0.02 v/v ratio to obtain spray solutions containing the highest application rates. Additional application rates were obtained by serial dilution of 12 mL of the high rate solution into a solution containing 2 mL of a 97:3 v/v (volume/volume) mixture of acetone and DMSO and 10 mL of an aqueous mixture containing acetone, water, isopropyl alcohol, DMSO, Atplus 411F crop oil concentrate, and Triton® X-155 surfactant in a 48.5:39:10:1.5:1.0:0.02 v/v ratio to obtain ½×, ¼×, ⅛× and 1/16× rates of the high rate. Compound requirements are based upon a 12 mL application volume at a rate of 187 liters per hectare (L/ha). Formulated compounds were applied to the plant material with an overhead Mandel track sprayer equipped with 8002E nozzles calibrated to deliver 187 L/ha over an application area of 0.503 square meters (m^2) at a spray height of 18 inches (43 cm) above the average plant canopy height. Control plants were sprayed in the same manner with the solvent blank.
The treated plants and control plants were placed in a greenhouse as described above and watered by sub-irrigation to prevent wash-off of the test compounds. After 14 d, the condition of the test plants as compared with that of the untreated plants was determined visually and scored on a scale of 0 to 100 percent where 0 corresponds to no injury and 100 corresponds to complete kill.

Assay [2] relates to Echinochloa crus-galli (L.) P.BEAUV. (barnyardgrass). Description: In-water applied herbicidal activity in transplanted paddy rice (Example 17). The note with it: for pest or weed control at 35 g/ha / pest or weed control at 17.5 g/ha: Echinochloa crus-galli, 504 h, read-out: Visual Injury (%) ECHCG; for pest or weed control at 35 g/ha: 35 g ae/ha; for GR50 / GR80 / GR90: ECHCG, in-water applied, probit analysis; for GR50: 50% growth reduction; for GR80: 80% growth reduction; for GR90: 90% growth reduction. It is filed as in vivo. In outline: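 Ester forms of test compounds, in acetone diluted with aqueous Agri-dex (final 1.25% v/v crop oil concentrate), were injected into the flood water of paddy pots holding weeds or rice at the 2nd–3rd leaf stage in mud (pH ~7.3–7.8). Visual injury versus untreated plants was scored 0–100% after 3 weeks in greenhouse (~29/26 °C). GR50/GR80 were derived by probit analysis.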

The mark [3] stands for this setting: rice cropping systems, in-water applied (paddy), 21 DAA, may represent multiple trials.
[4] abbreviates: 35 g ai/ha, 0 = no injury, 100 = complete kill.
Where [5] appears, read: rice cropping systems, in-water applied (paddy), 17.5 g ae/ha, 21 DAA, may represent multiple trials.

For `COC(=O)c1nc(-c2ccc(Cl)c(OC)c2F)nc(N)c1OC` [Compound F, methyl 6-amino-2-(4-chloro-2-fluoro-3-methoxyphenyl)-5-methoxypyrimidine-4-carboxylate, reference compound], the “Visual Injury (%) IPOHE” value in assay [1] (70 g ai/ha) is given as 80%. Further, the pest or weed control at 35 g/ha in assay [2] (setting [3]) was 0%.

Take `COC(=O)c1nc(-c2ccc(Cl)c(OC)c2F)cc(N)c1Cl` [Compound G, methyl 4-amino-3-chloro-6-(4-chloro-2-fluoro-3-methoxyphenyl)picolinate, reference compound]: the “Visual Injury (%) IPOHE” value in assay [1] (8.75 g ai/ha) was 40%; in assay [1] (17.5 g ai/ha) it was 50%; in assay [1] (setting [4]), 65%. In addition, the pest or weed control at 35 g/ha in assay [2] (setting [3]) is 74%.

Take `COC(=O)c1nc(-c2ccc(Cl)c(OC)c2F)c(F)c(N)c1Cl` [E, methyl 4-amino-3-chloro-6-(4-chloro-2-fluoro-3-methoxyphenyl)-5-fluoropicolinate, reference compound]: in assay [2], the GR50 was determined as 33.2 g ae/ha, the GR80 amounted to 58.5 g ae/ha and the GR90 was 78.7 g ae/ha. In addition, in assay [2] (setting [5]), the pest or weed control at 17.5 g/ha worked out at 26%.

For `COC(=O)c1nc(-c2ccc(C3CC3)cc2)c(F)c(N)c1Cl` [Compound B, methyl 4-amino-3-chloro-6-(4-cyclopropylphenyl)-5-fluoropicolinate], in assay [2] (setting [5]), the pest or weed control at 17.5 g/ha is 10%.

As for `Nc1c(F)c(-c2ccc(C3CC3)cc2)nc(C(=O)OCc2ccccc2)c1Cl` [Compound 42, benzyl 4-amino-3-chloro-6-(4-cyclopropylphenyl)-5-fluoropicolinate], in assay [2] (setting [5]), the pest or weed control at 17.5 g/ha was found to be 70%.

With `COc1c(Cl)ccc(-c2cc(N)c(Cl)c(C(=O)OCc3ccccc3)n2)c1F` [Compound 39], the “Visual Injury (%) IPOHE” value is listed as 70% in assay [1] (8.75 g ai/ha), 75% in assay [1] (17.5 g ai/ha) and 80% in assay [1] (setting [4]). Further, the pest or weed control at 35 g/ha in assay [2] (setting [3]) was 100%.

As to `COc1c(Cl)ccc(-c2nc(C(=O)OCc3ccccc3)c(Cl)c(N)c2F)c1F` [Compound 1, benzyl 4-amino-3-chloro-6-(4-chloro-2-fluoro-3-methoxyphenyl)-5-fluoropicolinate], in assay [2], the GR50 is on record as 10.9 g ae/ha, the GR80 is 21.8 g ae/ha, the GR90 was determined as 31.2 g ae/ha and the pest or weed control at 17.5 g/ha was found to be 87%.
